Test results as given in patent US20150079000A1, “Labelled Quinoxaline Derivatives as Multimodal Radiopharmaceuticals and Their Precursors” (INSTITUT NATIONAL DE LA SANTET DE LA RECHERCHE MEDICALE, priority 2012, published 2015).

How the values were obtained:
[1] = system: B16 murine melanoma tumours; test: Ex vivo biodistribution study for compound [125I](1); type: in vivo, C57BL/6J mice
Experimental: Twenty four B16BL6 primary melanoma bearing mice were intravenously injected with 2.2 MBq of [^1251]1 and sacrificed 1 h, 3 h, 6 h, 24 h, 72 h and 10 days after tracer injection (n=4/time point). Tumours and major organs and tissues were promptly excised, harvested, weighted and their radioactivity counted using a calibrated γ-counter with a […] energy window. After radioactive decay correction, results were expressed as percentage of injected dose per gram of tissue (% ID/g).

[2] = Metabolism of compound [125I](1); type: in vivo, mice
Experimental: 24 primary melanoma bearing mice were intravenously injected with 2.2 MBq of [^1251](1) and sacrificed 1 h, 3 h, 6 h, 24 h, 72 h and 10 days after tracer injection. To determine the metabolic stability of [^1251](1), blood, tumour, eyes, liver, kidney and urine samples were collected at each time point […]. Faeces were collected between 0-24 h and 24-48 h. Blood was immediately diluted in 5 mL of methanol/NH4OH 99.8:0.2 and centrifuged for 5 min at 3,000 rpm. Tumour, eyes, liver, kidneys and faeces were suspended in 5 mL of methanol/NH4OH 99.8:0.2, homogenized using GentleMACS™ dissociator (Miltenyi Biotec, Bergisch Gladbach, Germany) and centrifuged for 5 min at 3,000 rpm (repeated 2 times). Urines were analysed without any treatment. The extraction efficiency was determined by measuring the radioactivity of supernatants and precipitates. Supernatants were passed through a 0.22 μm Millipore filter and then concentrated to a volume between 200 and 500 μL before injection (duplicate) onto the analytical HPLC(C18 column; solvent A: H2O (0.2% NH4OH); solvent B: MeOH (0.2% NH4OH); Gradient elution: 0-5 min: 90 to 70% of A (Q=0.5 mL·min^−1); 5-30 min: 70 to 20% of A (Q=0.9 mL·min^−1); 30-32 min: 10% of A (Q=0.9 mL·min^−1)).

## CCN(CCNC(=O)c1cnc2cc([125I])ccc2n1)CCOCCOCCOCCF [[^125I](1)]
[1]; 24 h p.i.
  % ID/g Small intestine: 0.12 ± 0.03 % ID/g
  % ID/g Spleen: 0.06 ± 0.01 % ID/g
  % ID/g Stomach: 0.54 ± 0.25 % ID/g
  % ID/g Testes: 0.03 ± 0.01 % ID/g
[1]; 72 h p.i.
  % ID/g Adipose: 0.02 ± 0.00 % ID/g
  % ID/g Bones: 0.02 ± 0.01 % ID/g
  % ID/g Brain: 0.01 ± 0.00 % ID/g
  % ID/g Ceacum: 0.33 ± 0.29 % ID/g
  % ID/g Colon: 0.25 ± 0.10 % ID/g
  % ID/g Heart: 0.08 ± 0.02 % ID/g
  % ID/g Kidney: 0.24 ± 0.04 % ID/g
  % ID/g Liver: 0.08 ± 0.00 % ID/g
  % ID/g Lung: 0.05 ± 0.01 % ID/g
  % ID/g Muscle: 0.02 ± 0.00 % ID/g
  % ID/g Pancreas: 0.03 ± 0.01 % ID/g
  % ID/g Skin: 0.50 ± 0.26 % ID/g
  % ID/g Small intestine: 0.07 ± 0.03 % ID/g
  % ID/g Spleen: 0.52 ± 0.96 % ID/g
  % ID/g Stomach: 0.16 ± 0.05 % ID/g
  % ID/g Testes: 0.02 ± 0.00 % ID/g
[1]; 10 d p.i.
  % ID/g Adipose: 0.01 ± 0.01 % ID/g
  % ID/g Bones: 0.01 ± 0.01 % ID/g
  % ID/g Brain: 0.00 ± 0.00 % ID/g
  % ID/g Ceacum: 0.02 ± 0.02 % ID/g
  % ID/g Colon: 0.02 ± 0.01 % ID/g
  % ID/g Heart: 0.03 ± 0.01 % ID/g
  % ID/g Kidney: 0.04 ± 0.03 % ID/g
  % ID/g Liver: 0.01 ± 0.00 % ID/g
  % ID/g Lung: 0.01 ± 0.01 % ID/g
  % ID/g Muscle: 0.01 ± 0.06 % ID/g
  % ID/g Pancreas: 0.02 ± 0.03 % ID/g
  % ID/g Skin: 0.05 ± 0.06 % ID/g
  % ID/g Small intestine: 0.01 ± 0.00 % ID/g
  % ID/g Spleen: 0.23 ± 0.41 % ID/g
  % ID/g Stomach: 0.03 ± 0.01 % ID/g
  % ID/g Testes: 0.00 ± 0.00 % ID/g
[2]; Blood, 1 h after [125I](1) injection
  % of radioactivity: 2.0 ± 2.8%
[2]; Blood, 3 h after [125I](1) injection
  % of radioactivity: 0.0 ± 0.0%
[2]; Blood, 6 h after [125I](1) injection
  % of radioactivity: 3.5 ± 4.9%
[2]; Eyes, 1 h after [125I](1) injection
  % of radioactivity: 90.5 ± 0.7%
[2]; Eyes, 3 h after [125I](1) injection
  % of radioactivity: 94.5 ± 2.1%
[2]; Eyes, 6 h after [125I](1) injection
  % of radioactivity: 96.0 ± 5.7%
[2]; Eyes, 24 h after [125I](1) injection
  % of radioactivity: 90.0 ± 2.8%
[2]; Eyes, 72 h after [125I](1) injection
  % of radioactivity: 96.5 ± 4.9%
[2]; Eyes, 10 d after [125I](1) injection
  % of radioactivity: 100.0 ± 0.0%
[2]; Feces, (grid: 3 h; faeces collected 24-48 h)
  % of radioactivity: 2.5 ± 0.7%
[2]; Feces, first value column (grid: 1 h; faeces collected 0-24 h)
  % of radioactivity: 5.0 ± 0.0%
[2]; Kidney, 1 h after [125I](1) injection
  % of radioactivity: 12.5 ± 2.1%
[2]; Kidney, 3 h after [125I](1) injection
  % of radioactivity: 6.1 ± 2.9%
[2]; Kidney, 6 h after [125I](1) injection
  % of radioactivity: 0.0 ± 0.0%
[2]; Liver, 1 h after [125I](1) injection
  % of radioactivity: 27.5 ± 0.7%
[2]; Liver, 3 h after [125I](1) injection
  % of radioactivity: 24.0 ± 4.2%
[2]; Liver, 6 h after [125I](1) injection
  % of radioactivity: 8.5 ± 0.7%
[2]; Liver, 24 h after [125I](1) injection
  % of radioactivity: 0.0 ± 0.0%
[2]; Tumour, 1 h after [125I](1) injection
  % of radioactivity: 87.0 ± 1.4%
[2]; Tumour, 3 h after [125I](1) injection
  % of radioactivity: 81.0 ± 1.4%
[2]; Tumour, 6 h after [125I](1) injection
  % of radioactivity: 77.0 ± 0.0%
[2]; Tumour, 24 h after [125I](1) injection
  % of radioactivity: 92.5 ± 9.2%
[2]; Tumour, 72 h after [125I](1) injection
  % of radioactivity: 91.5 ± 3.5%
[2]; Tumour, 10 d after [125I](1) injection
  % of radioactivity: 100.0 ± 0.0%
[2]; Urine, 1 h after [125I](1) injection
  % of radioactivity: 12.6 ± 0.5%
[2]; Urine, 3 h after [125I](1) injection
  % of radioactivity: 0.0 ± 0.0%
[2]; Urine, 6 h after [125I](1) injection
  % of radioactivity: 0.0 ± 0.0%
[2]; Urine, 24 h after [125I](1) injection
  % of radioactivity: 0.0 ± 0.0%
[2]; Urine, 72 h after [125I](1) injection
  % of radioactivity: 0.0 ± 0.0%
